Results reported in patent publication US6420377B1, “Covalent conjugates of topoisomerase I and topoisomerase II inhibitors” (priority 1997, dated 2002).
Like-named read-outs stand apart in the source and are kept apart here.

Assays:
KB cells [1] = test: Gel lysis assay for genomic DNA breaks; assay type: cell-based; details: for reversal of genomic DNA fragmentation upon drug removal: additional hour in fresh media
Experimental: One million KB cells in 25cm^2 flasks were treated for three hours with test compound, the medium was discarded then cells were scraped into ice-cold PBS and harvested by centrifugation. Washed cell pellets were resuspended in eighty microliters of a 37° C. gel solution [1% (w/v) low-melting point agarose in PBS], and were cast in a mold and refrigerated to form 6×7×2 mm agarose plugs. Plugs of cells were incubated in lysis-digestion buffer (0.4M EDTA, 0.01 Tris (HCl, pH 8.0), 1% (w/v) N-lauryl-sarcosine and 100 μg/mL proteinase K) at 37° overnight or 50° for one hour. The treated plugs were equilibrated in TBE buffer and placed against a gel comb in a horizontal gel casting tray (BRL Inc., H4 system format). A 55° gel solution containing 0.8% (w/v) agarose in TBE was poured and allowed to gel. Electrophoresis was at 3.5 v/cm (measured between electrodes) for 16 hours at 4° without buffer re-circulation. The gel was stained with 1 μg/mL ethidium bromide in water, treated overnight at 25° C. with RN'ase (1 μg/mL), and then photographed under UV illumination. For the reversibility studies, treated cells were washed with PBS and incubated with fresh media for an additional hour before harvesting for plug preparation and gel analysis.

KB-VIN20c [2] = test: Cytotoxicity measured as reduced plating efficiency, KB-VIN20c cells; assay type: cell-based; details: 3 h, read-out: Cytotoxicity Measured as Reduced Plating Efficiency IC50
Experimental: (§1) LC50 concentrations were determined by treating cells for three hours with different concentrations of compounds then replating cells to measure colony formation and plating efficiency as the percent of total cells forming colonies. Compounds were evaluated in three independent experiments. The plating efficiences of untreated cells varied between experiments with values ranging from 14-31% for KB, 31-56% for KB-7d, 16-38% for KB-VIN20c and 21-36% for KB-CPT100. A concentration of compound that reduced plating efficiency by fifty percent relative to control, the LC50, was determined graphically as stated in the preceding section.

KB-CPT100 [3] = test: Cell growth inhibition, camptothecin-resistant KB-CPT100 cells; assay type: cell-based; details: for cross-resistance of KB-CPT100 cells, growth inhibition: relative to KB
Experimental: (§2) The KB oral carcinoma cell line was provided by M. Fisher (Pharmacology, UNC- Chapel Hill). The isolation and properties of the etoposide-resistant sub-clone, KB-7d, and the camptothecin-resistant line, KB-CPT100, were reported in P. Ferguson et al., Cancer Res. 48:5956 (1988) and D. Beidler et al., Cancer Res. 56:345 (1996), and are discussed briefly hereinafter. The vincristine-resistant sub-clone, KB-VIN20c was isolated by selection in 20 nM vincristine and over-expresses the P-glycoprotein multidrug-resistant drug-efflux protein (unpublished results).
(§3) All cell types were propagated in RPMI-1640 medium supplemented with 5% (v/v) fetal calf serum and 100 μg/mL kanamycin at 37° in a humidified atmosphere of 5% CO2 and 95% air. Over the course of the experiments, doubling times of cells were 24±4 hours.
(§4) Fifty thousand cells were plated in 25 cm^2 flasks (Falcon, N.J., USA) and incubated overnight. The medium was supplemented with test compounds at various concentrations and cultures were incubated for 48-51 hours (for about two cell doublings) before cells were trypsinized and then counted using a hemacytometer. The number of treated cells which excluded 0.5% (v/v) trypan blue were expressed as a percentage of the growth measured in control cultures. Compounds were evaluated in at least two independent experiments and the combined results were analyzed as scatter plots with dose-responses being computer fitted by linear regression at the 95% confidence level using Graphpad Software., San Diego, Calif. The IC50 concentrations which inhibited cell growth by fifty percent relative to control were interpolated from graphed results.

KB = test: Cytotoxicity measured as reduced plating efficiency, KB cells; assay type: cell-based; details: Homo sapiens, 3 h, read-out: Cytotoxicity Measured as Reduced Plating Efficiency IC50
Experimental: as §1

KB-7d [4] = test: Cell growth inhibition, etoposide-resistant KB-7d cells; assay type: cell-based; details: for IC50: KB7D, read-out: Cell Growth Inhibition IC50
Experimental: as §2, §3, §4

KB-7d [5] = test: Cytotoxicity measured as reduced plating efficiency, KB-7d cells; assay type: cell-based; details: for IC50: KB7D, 3 h, read-out: Cytotoxicity Measured as Reduced Plating Efficiency IC50
Experimental: as §1

[6] = system: KB oral carcinoma cell line; test: Cell growth inhibition, KB cells; assay type: cell-based; details: for IC50: Homo sapiens, KB
Experimental: as §2, §3, §4

[7] = biological target: T1, calf thymus DNA topoisomerase I (Bos taurus, UniProt F1MN93); test: In vitro topoisomerase-DNA cleavage assay, topoisomerase I; assay type: biochemical; details: for stimulation of topoisomerase I cleavage activity, dose behaviour: higher test concentrations; for cleavable complex formation with topoisomerase I / topoisomerase I cleavable complex activity relative to unconjugated components: ten micromolar; for cleavable complex formation with topoisomerase I: FIG. 1A; for topoisomerase I cleavable complex activity relative to unconjugated components: S-1 vs 3, 4a, S-2 vs 3, 4b
T1 construct: Calf thymus DNA topoisomerases were purchased from TopoGen Inc., Columbus, Ohio; purchased TopoGen Inc., Columbus, Ohio; host or cells: calf thymus (tissue-derived enzyme)
T1 sequence (F1MN93 1-767): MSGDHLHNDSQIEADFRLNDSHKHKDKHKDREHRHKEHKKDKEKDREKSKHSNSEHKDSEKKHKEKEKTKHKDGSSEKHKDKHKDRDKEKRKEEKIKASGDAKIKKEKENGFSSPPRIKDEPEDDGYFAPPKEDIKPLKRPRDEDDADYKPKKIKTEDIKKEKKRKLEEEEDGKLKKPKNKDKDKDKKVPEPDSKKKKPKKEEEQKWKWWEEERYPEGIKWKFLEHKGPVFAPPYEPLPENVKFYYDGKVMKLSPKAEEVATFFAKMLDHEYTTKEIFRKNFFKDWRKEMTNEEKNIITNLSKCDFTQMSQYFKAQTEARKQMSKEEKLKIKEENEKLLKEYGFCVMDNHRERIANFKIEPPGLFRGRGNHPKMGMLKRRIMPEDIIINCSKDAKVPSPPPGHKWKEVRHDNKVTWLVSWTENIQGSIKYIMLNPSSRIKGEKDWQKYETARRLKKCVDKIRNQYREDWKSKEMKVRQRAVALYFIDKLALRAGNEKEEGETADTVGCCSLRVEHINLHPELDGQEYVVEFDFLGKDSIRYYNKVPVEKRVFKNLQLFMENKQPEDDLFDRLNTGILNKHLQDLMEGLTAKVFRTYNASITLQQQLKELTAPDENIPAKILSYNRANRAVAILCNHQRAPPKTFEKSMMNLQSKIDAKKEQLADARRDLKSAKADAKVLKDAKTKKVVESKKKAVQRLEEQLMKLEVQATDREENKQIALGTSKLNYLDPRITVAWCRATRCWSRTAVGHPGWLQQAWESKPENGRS
Source text: (§5) Calf thymus DNA topoisomerases were purchased from TopoGen Inc., Columbus, Ohio. Tritium-labeled thymidine (60-90 ci/mmol) for labeling cellular DNA to measure protein-DNA complexes and αP^32-labeled deoxycytidine triphosphate (>3000 ci/mmol) were obtained from ICN Biochemicals Inc., Irvine, Calif. The latter radiochemical was used with a T4-DNA polymerase polymerase-labeling system from BRL Inc., Gaithersburg, Md., to prepare P^32-plasmid DNA for in vitro cleavage assays. Tissue culture reagents were purchased from Sigma Chemical Co., St. Louis, Mo., and Gibco-BRL Inc. All other chemicals were reagent grade.
(§6) The detailed method used to measure stimulation of cleavable complexes in vitro is described in K. Bastow et al., Planta Med. 59:195 (1993).. Briefly, incubated cleavage reactions containing one nanogram of P^32 end-labeled linearized PBR322 DNA, one unit of enzyme and test compound were divided equally for analysis. One portion was prepared for gel electrophoresis with subsequent autoradiography and protein-DNA complexes in the remaining sample were analyzed using the potassium-SDS precipitation method and scintillation spectrometry.

KB-VIN20c [8] = test: Cell growth inhibition, vincristine-resistant KB-VIN20c cells; assay type: cell-based; details: for IC50: read-out: Cell Growth Inhibition IC50
Experimental: as §2, §3, §4

KB cells [9] = test: Cellular protein-DNA complex formation (potassium-SDS precipitation); assay type: cell-based; details: one hour
Experimental: Stimulation of intracellular protein associated DNA breaks was measured using a standard assay method described in Y. Kashiwada et al., J. Pharm. Sci. 82:487 (1993). Briefly, KB cells were labeled overnight with tritiated thymidine (0.5 μCi/mL), chased for two hours and then treated in triplicate with test compounds at various concentrations. After one hour, samples were processed and protein-DNA complexes were measured as potassium-SDS precipitable radioactivity.

KB-7d [10] = details: relative to KB; cited from earlier work
[11] = system: calf thymus DNA topoisomerase II; test: In vitro topoisomerase-DNA cleavage assay, topoisomerase II; assay type: biochemical; details: for cleavable complex formation with topoisomerase II: FIG. 1A; for topoisomerase II cleavable complex activity relative to unconjugated components: S-1 vs 3, 4a, S-2 vs 3, 4b
Source text: as §5, §6

[12] = system: KB oral carcinoma cell line; details: KB growth inhibition; cited from earlier work
KB-CPT100 [13] = details: relative to KB; cited from earlier work
KB-CPT100 [14] = test: Cytotoxicity measured as reduced plating efficiency, KB-CPT100 cells; assay type: cell-based; details: KBCPT100, 3 h, read-out: Cytotoxicity Measured as Reduced Plating Efficiency IC50
Experimental: as §1

[15] = fifty-times the IC50 for KB growth inhibition (etoposide eight, 4b four, 3 0.4, S-2 0.8 micromolar), three hours
[16] = twenty-fold higher concentration (3 at sixteen micromolar), three hours
[17] = twenty-fold higher concentration

| SMILES | genomic DNA fragmentation (KB cells [1]; [15]) | genomic DNA fragmentation (KB cells [1]; [16]) | reversal of genomic DNA fragmentation upon drug removal (KB cells [1]; [17]) | IC50 (KB-VIN20c [2]) | cross-resistance of KB-CPT100 cells, growth inhibition (KB-CPT100 [3]) | IC50 (KB) | IC50 (KB-7d [5]) | stimulation of topoisomerase I cleavage activity, dose behaviour [7] | stimulation of in vitro topoisomerase II cleavable-complexes, dose behaviour [11] | stimulation of topoisomerase II-induced DNA cleavage over enzyme control ([11]; fifty micromolar) | stimulation of topoisomerase II-induced DNA cleavage over enzyme control ([11]; one micromolar) | stimulation of topoisomerase II-induced DNA cleavage over enzyme control ([11]; ten micromolar) | IC50 [12] | cleavable complex formation with topoisomerase II ([11]; ten micromolar) | topoisomerase II cleavable complex activity relative to unconjugated components ([11]; ten micromolar) | cleavable complex formation with topoisomerase I [7] | topoisomerase I cleavable complex activity relative to unconjugated components [7] | also measured |
| --- | --- | --- | --- | --- | --- | --- | --- | --- | --- | --- | --- | --- | --- | --- | --- | --- | --- | --- |
| CC[C@@]1(O)C(=O)OCc2c1cc1n(c2=O)Cc2c-1nc1ccccc1c2C=O [Compound 3, 7-formyl camptothecin, reference compound] | inactive | marginal fragmentation | not affected by reversing treatment | 12 µM | about 58 fold | 10 µM | > 16 µM | not inhibited at higher test concentrations |  |  |  |  |  |  |  |  |  | IC50 (KB-CPT100 [3]; KBCPT100, KB-CPT100, 48-51 hours, two numbers in brackets after the value, read-out: Cell Growth Inhibition IC50): 575 nM; IC50 (KB-7d [4]; KB-7d, 48-51 hours, two numbers in brackets after the value): 9 nM; cross-resistance of KB-7d cells, growth inhibition (KB-7d [4]; relative to KB): equally active; IC50 ([6]; read-out: estimated IC50, KB cell growth): 7 nM; IC50 ([6]; 48-51 hours, two numbers in brackets after the value, read-out: Cell Growth Inhibition IC50): 7 nM; IC50 (KB-VIN20c [8]; XB-VIN20c (so in the source), 48-51 hours, two numbers in brackets after the value): 18 nM; cross-resistance of KB-VIN20c cells, growth inhibition (KB-VIN20c [8]; relative to KB): no more than 2 fold |
| COc1cc([C@@H]2c3cc4c(cc3[C@@H](O[C@@H]3O[C@@H]5CO[C@@H](C)O[C@H]5[C@H](O)[C@H]3O)[C@H]3COC(=O)[C@H]23)OCO4)cc(OC)c1O [Compound C-1, etoposide, reference compound] | High molecular weight DNA fragments were detected |  |  |  |  |  |  |  | act saturably | 12 fold | 1.5 fold | 3 fold | 160 ± 40 nM |  |  |  |  | reversal of genomic DNA fragmentation upon drug removal (KB cells [1]; fifty-times the IC50): integrity of the DNA was restored; intracellular protein-DNA complex formation (KB cells [9]; one micromolar and lower): no measurable response; resistance of KB-7d cells (KB-7d [10]): 145 fold |
| CC[C@@]1(O)C(=O)OCc2c1cc1n(c2=O)Cc2cc3ccccc3nc2-1 [Compound C-2, camptothecin] |  |  |  |  |  |  |  |  |  |  |  |  | 9.8 ± 3.2 nM |  |  |  |  | resistance of KB-CPT100 cells to growth-inhibitory effect (KB-CPT100 [13]): 32 fold |
| CC[C@@]1(O)C(=O)OCc2c1cc1n(c2=O)Cc2c-1nc1ccccc1c2/C=N\c1ccc(N[C@@H]2c3cc4c(cc3[C@@H](c3cc(OC)c(O)c(OC)c3)[C@H]3C(=O)OC[C@@H]32)OCO4)cc1 [Compound S-1] |  |  |  |  |  |  |  |  |  |  |  |  |  | induced cleavable complexes | reduced about two-fold | induced cleavable complexes | reduced about two-fold | melting point: > 300 °C (dec.) |
| CC[C@@]1(O)C(=O)OCc2c1cc1n(c2=O)Cc2c-1nc1ccccc1c2/C=N/c1ccccc1N[C@@H]1c2cc3c(cc2[C@@H](c2cc(OC)c(O)c(OC)c2)[C@H]2C(=O)OC[C@@H]21)OCO3 [Compound S-2] |  | high molecular mass genomic fragments were detected | only partially restored | 4.6 µM | only six-fold cross-resistant | 4 µM | > 15 µM | not inhibited at higher test concentrations | dose-inhibitory | only marginal stimulation | only marginal stimulation | ~4 fold |  | induced cleavable complexes | reduced about two-fold | induced cleavable complexes | reduced about two-fold | IC50 (KB-CPT100 [14]): 2000 nM; genomic DNA fragmentation (KB cells [1]): marginal DNA fragmentation; IC50 (KB-CPT100 [3]; KBCPT100, read-out: Cell Growth Inhibition IC50): 85 nM; intracellular protein-DNA complex formation, dose behaviour (KB cells [9]; high concentration (7.5-60 micromolar)): not dose-inhibitory at high concentration; IC50 (KB-7d [4]): 15 nM; cross-resistance of KB-7d cells to cytotoxic action (KB-7d [5]): appeared cross-resistant; activity at inhibiting KB cell growth relative to C-1 [6]: about ten-fold more active; IC50 ([6]; read-out: Cell Growth Inhibition IC50): 14 nM; IC50 (KB-VIN20c [8]): 27 nM |
